Data: paper PMC5626944 (Frontiers in Pharmacology, 2017)
Read-outs that look alike come from different tables or passages of the source.

Assays:
[1] = 0.2 mg/kg ip; for [TC299423] in assay: brain; for Blood measurements: [TC299423]: serum
Protocol: Uninjected mice served as controls (n = 3 for each group). Trunk blood was collected into heparinized 1.5 mL polyethylene tubes. The tubes were centrifuged and the serum was collected. […] The cerebral cortex was dissected, placed in 1 mL of cold water, homogenized, and diluted to 3 mL with cold water. Epibatidine saturation curves were constructed for the cortical samples using eight concentrations of [^125I]epibatidine measured in triplicate (6, 12, 25, 50, 100, 200, 400, and 800 pM). The final assay volume was […] 50 μL of homogenate was added to each sample. Blanks included 100 μM nicotine. Samples were incubated at room temperature overnight. The samples were filtered, washed and counted. Inhibition of [^125I]epibatidine (325 pM) binding was measured by adding 1, 2, 5, 10, or 20 μL of serum to samples. The washed, particulate fraction from C57BL/6 cortex was the source of the binding sites.

CYP1A2 = test: Turnover by recombinantly expressed human cytochrome P450 isoforms; type: in vitro ADME; conditions: 100 pmol/mL enzyme, 37 °C
Protocol: (§1) S2 Table. In vitro metabolism of TC299423, compared w ith varenicline.
(§2) Human Rat microsomes Turnover by human cytochrome P450 isoforms […]
(§3) The assay mixtures (final incubation volume of 125 μL) in 0.255 M phosphate buffer with 0.575% (w/v) KCl (pH 7.4) contained PiB (1.0 μM), […] a recombinantly expressed cytochrome P450 enzyme preparation (1A2, 2C9, 2C19, 2D6, 3A4, and FMO3) at 100 pmol/mL. After a 10 min preincubation at 37 °C, the reaction was initiated by addition of 2.0 mM NADPH and incubated for 60 min. The reactions were terminated by the addition of two volumes of DMSO. Samples were subsequently centrifuged at 4,000 rpm for 10 min. From the resulting supernatant, 10 μ L was analyzed by liquid chromatography/tandem mass spectrometry (LC-MS/MS). Control experiments were performed by substituting the active enzyme preparation by cell preparations containing no recombinant human CYP. a, Data for clearance are given as μL /min/mg protein. […]
(§4) c, Data for cytochrome P450 turnover and for human flavin- containing monooxygenase 3 (FMO3) are given as percent decline over 60 min.

CYP2C19 = test: as above; type: in vitro ADME; conditions: 100 pmol/mL enzyme, 37 °C
Protocol: as §1, §2, §3, §4

CYP2C9 = test: as above; type: in vitro ADME; conditions: 100 pmol/mL enzyme, 37 °C
Protocol: as §1, §2, §3, §4

CYP2D6 = test: as above; type: in vitro ADME; conditions: 100 pmol/mL enzyme, 37 °C
Protocol: as §1, §2, §3, §4

WT and α6L9′S mice = test: Locomotor assay in a novel environment; type: in vivo, mouse; conditions: 0.5 μmol/kg ip (nicotine 0.08 mg/kg, TC299423 0.09 mg/kg)
Protocol: Mice were habituated to the experimental room for 2 h prior to the experiment. Horizontal locomotor activity was recorded using an infrared photobeam activity cage system (San Diego Instruments; San Diego, CA, United States). After habituating to the experimental room, mice were placed singly in a novel cage. Ambulations were recorded when two contiguous photobeams were broken in succession, preventing activity from being recorded by most sedentary animals. Ambulation events were measured for 45 min with four 15 s intervals per min. Mice were given a total of two intraperitoneal (ip) injections. First, mice were pre-injected with saline or 1 mg/kg mecamylamine before being placed in the activity cages.

Adenosine, A2A (h) = system: T1, Adenosine, A2A (h); test: NovaScreen competition binding; design: species or system human; conditions: 1 µM
T1 construct: PerkinElmer – Caliper Life Sciences (NovaScreen service)

Adrenergic, Beta 1 (h) = test: NovaScreen competition binding; design: species or system human; conditions: 1 µM
Dopamine, D4.4 (h) = test: NovaScreen competition binding; design: species or system human; conditions: 1 µM
[2] = system: T2, GABA A, BDZ, alpha 1 site; test: NovaScreen competition binding; conditions: 1 µM
T2 construct: PerkinElmer – Caliper Life Sciences (NovaScreen)

[3] = system: Glutamate, MK-801 Site (Ionotropic); test: NovaScreen competition binding; conditions: 1 µM
[4] = system: Glutamate, NMDA Agonist Site (Ionotropic); test: NovaScreen competition binding; conditions: 1 µM
Histamine, H2 = system: T3, Histamine, H2; test: NovaScreen competition binding; conditions: 1 µM
T3 construct: PerkinElmer – Caliper Life Sciences (NovaScreen)

Muscarinic, M1 (hr) = test: NovaScreen competition binding; design: species or system human; conditions: 1 µM
Opioid, Mu (h) = test: NovaScreen competition binding; design: species or system human; conditions: 1 µM
Serotonin, 5HT3 = system: T4, Serotonin, 5HT3; test: NovaScreen competition binding; design: species or system mouse; conditions: 1 µM
T4 construct: endogenous in cells; host or cells: N1E-115 (mouse neuroblastoma)
Source text: Assays included the nicotinic drug [^3H]epibatidine binding to α-bungarotoxin-insensitive nAChRs, the 5-HT3 inhibitor [N-methyl-^3H]GR65630 to mouse receptors in N1E-115 cells, and human receptors expressed in a clonal cell line. Other assays included monoamine oxidase A, monoamine oxidase B, 5-HT transporter, norepinephrine transporter, and dopamine transporter, as well as other. G-protein-coupled receptors, ion channels, enzymes, and transporters.

Sigma 1 = test: NovaScreen competition binding; conditions: 1 µM
[5] = system: Calcium Channel, Type L (Dihydropyridine Site); test: NovaScreen competition binding; conditions: 1 µM
Angiotensin II, AT1 (h) = system: T5, Angiotensin II, AT1 (h); test: NovaScreen competition binding; design: species or system human; conditions: 1 µM
T5 construct: PerkinElmer – Caliper Life Sciences (NovaScreen service)

α4β2* nAChRs = α4β2* nAChRs (Mus musculus, UniProt O70174+Q9ERK7); test: [125I]epibatidine binding, cortical membranes; design: from tissue; host or cells: cortical brain membranes (mouse)
Sequence of α4β2* nAChRs (O70174 31-629): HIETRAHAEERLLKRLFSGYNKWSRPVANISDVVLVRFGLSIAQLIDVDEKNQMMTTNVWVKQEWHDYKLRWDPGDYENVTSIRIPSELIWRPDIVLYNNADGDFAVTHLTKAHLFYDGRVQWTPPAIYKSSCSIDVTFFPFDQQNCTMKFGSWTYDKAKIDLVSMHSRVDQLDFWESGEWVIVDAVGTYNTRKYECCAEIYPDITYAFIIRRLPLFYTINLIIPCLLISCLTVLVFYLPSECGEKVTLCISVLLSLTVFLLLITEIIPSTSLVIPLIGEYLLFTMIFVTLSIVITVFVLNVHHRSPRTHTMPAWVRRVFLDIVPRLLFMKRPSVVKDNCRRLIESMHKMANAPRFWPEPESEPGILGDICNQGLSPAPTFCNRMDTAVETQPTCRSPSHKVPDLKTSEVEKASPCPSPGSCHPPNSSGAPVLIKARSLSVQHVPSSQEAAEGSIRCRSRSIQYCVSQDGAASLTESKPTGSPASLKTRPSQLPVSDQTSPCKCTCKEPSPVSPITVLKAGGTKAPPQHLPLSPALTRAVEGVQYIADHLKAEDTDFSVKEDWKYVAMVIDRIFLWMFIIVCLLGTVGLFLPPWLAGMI
Sequence of α4β2* nAChRs (Q9ERK7 26-501): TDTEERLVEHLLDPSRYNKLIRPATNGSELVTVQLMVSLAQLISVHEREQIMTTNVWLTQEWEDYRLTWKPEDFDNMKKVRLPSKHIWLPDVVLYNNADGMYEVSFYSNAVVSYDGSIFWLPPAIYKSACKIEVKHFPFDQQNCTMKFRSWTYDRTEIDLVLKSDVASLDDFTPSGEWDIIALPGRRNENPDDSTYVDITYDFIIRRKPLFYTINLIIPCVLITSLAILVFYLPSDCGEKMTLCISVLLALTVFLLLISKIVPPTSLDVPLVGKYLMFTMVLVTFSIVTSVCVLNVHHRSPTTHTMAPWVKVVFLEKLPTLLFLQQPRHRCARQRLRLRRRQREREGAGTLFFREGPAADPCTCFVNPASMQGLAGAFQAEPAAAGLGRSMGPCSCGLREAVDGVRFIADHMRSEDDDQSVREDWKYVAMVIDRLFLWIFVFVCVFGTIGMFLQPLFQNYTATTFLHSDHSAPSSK
Protocol: Brain membrane preparations were stored as pellets under buffer at -70°C or used immediately.

Structure (SMILES): C1=C(/c2cncnc2)CCCNCC/1 [TC299423, (E)-5-(pyrimidin-5-yl)-1,2,3,4,7,8-hexahydroazocine]
- Duration of brain penetration and availability to nAChRs [1]: ≥ 20 min
- [TC299423] in brain ([1]; 5 min): 45 ± 25 pmol/mg
- [TC299423] in brain ([1]; 10 min): 88 ± 18 pmol/mg
- [TC299423] in brain ([1]; 20 min): 73 ± 4.0 pmol/mg
- [TC299423] in assay ([1]; 5 min): 2.2 ± 1.1 nM
- [TC299423] in assay ([1]; 10 min): 4.4 ± 0.9 nM
- [TC299423] in assay ([1]; 20 min): 3.7 ± 0.2 nM
- Blood measurements: [TC299423] ([1]; 5 min): 250 ± 50 nM
- Blood measurements: [TC299423] ([1]; 10 min): 370 ± 70 nM
- Blood measurements: [TC299423] ([1]; 20 min): 120 ± 30 nM
- Turnover by CYP1A2 (CYP1A2): 3 percent decline over 60 min
- Turnover by CYP2C19 (CYP2C19): 4 percent decline over 60 min
- Turnover by CYP2C9 (CYP2C9): 8 percent decline over 60 min
- Turnover by CYP2D6 (CYP2D6): 42 percent decline over 60 min
- Ambulatory activity in a novel environment (WT and α6L9′S mice; WT mice): Neither TC299423 nor nicotine affected WT ambulation
- Ambulatory activity in a novel environment (WT and α6L9′S mice; α6L9′S mice): dramatically increased the ambulatory activity
- Hit (Adenosine, A2A (h)): FALSE
- Inhibition (Adenosine, A2A (h); [3H]CGS 21680): 1.51%
- Hit (Adrenergic, Beta 1 (h)): FALSE
- Inhibition (Adrenergic, Beta 1 (h); [125I] (-) Iodocyanopindolol): 11.21%
- Hit (Dopamine, D4.4 (h)): FALSE
- Inhibition (Dopamine, D4.4 (h); [3H]-YM-09151-2): -2.44%
- Hit [2]: FALSE
- Inhibition ([2]; [3H]Flunitrazepam): 11.84%
- Hit [3]: FALSE
- Inhibition ([3]; [3H]MK-801): 5.46%
- Hit [4]: FALSE
- Inhibition ([4]; [3H]CGP 39653): 5.51%
- Hit (Histamine, H2): FALSE
- Inhibition (Histamine, H2; [125I]-Aminopotentidine): 6.50%
- Hit (Muscarinic, M1 (hr)): FALSE
- Inhibition (Muscarinic, M1 (hr); [3H]Scopolamine, N-Methyl): -11.73%
- Hit (Opioid, Mu (h)): FALSE
- Inhibition (Opioid, Mu (h); [3H]-Diprenorphine): -6.43%
- Hit (Serotonin, 5HT3): FALSE
- Inhibition (Serotonin, 5HT3; [3H]GR 65630): 7.50%
- Hit (Sigma 1): FALSE
- Inhibition (Sigma 1; [3H]-(+)-Pentazocine): -0.52%
- Hit [5]: FALSE
- Inhibition ([5]; [3H]Nitrendipine): -3.91%
- Hit (Angiotensin II, AT1 (h)): FALSE
- Inhibition (Angiotensin II, AT1 (h); [125I]-(Sar1-Ile8) Angiotensin): 24.85%
- Ki (α4β2* nAChRs; single component, cortical membranes): 0.24 ± 0.04 nM
- Difference between Ki ([125I]epibatidine) and EC50 ([3H]dopamine release) (α4β2* nAChRs; α4β2 nAChRs): ~500 fold
